Test results reported in ChEMBL document CHEMBL1201862, “PubChem BioAssay data set” (2004).
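Values below derive from 48-hour exposures of cells grown in 96-well plates, with endpoints linearly interpolated between the two concentrations bracketing the appropriate inhibition level. The concentration for 50% growth inhibition is given as GI50.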 Calls of active or inactive are those of the source. No stated cut-off is given here; in the data, active = GI50 up to about 1.1 µM and inactive = higher.

Key:
Assay in all cases: NCI tumour cell line growth inhibition, 48 h
[1] = test system: 786-0
[2] = test system: A549
[3] = test system: ACHN
[4] = test system: BT-549
[5] = test system: CAKI-1
[6] = test system: CCRF-CEM
[7] = test system: COLO 205
[8] = test system: DU-145
[9] = test system: EKVX
[10] = test system: HCC 2998
[11] = test system: HCT-116
[12] = test system: HCT-15
[13] = test system: HOP-92
[14] = test system: HT-29
[15] = test system: IGROV-1
[16] = test system: K562
[17] = test system: KM12
[18] = test system: LOX IMVI
[19] = test system: M14
[20] = test system: MCF7
[21] = test system: MDA-MB-231
[22] = test system: MDA-MB-435
[23] = test system: MDA-N
[24] = test system: MOLT-4
[25] = test system: Malme-3M
[26] = test system: NCI-H226
[27] = test system: NCI-H23
[28] = test system: NCI-H460
[29] = test system: NCI-H522
[30] = test system: NCI/ADR-RES
[31] = test system: OVCAR-3
[32] = test system: OVCAR-4
[33] = test system: OVCAR-5
[34] = test system: OVCAR-8
[35] = test system: PC-3
[36] = test system: RXF 393
[37] = test system: SF-295
[38] = test system: SF-539
[39] = test system: SK-MEL-28
[40] = test system: SK-MEL-2
[41] = test system: SK-MEL-5
[42] = test system: SK-OV-3
[43] = test system: SN12C
[44] = test system: SNB-19
[45] = test system: SNB-75
[46] = test system: SR
[47] = test system: SW-620
[48] = test system: T47D
[49] = test system: TK-10
[50] = test system: U-251
[51] = test system: UACC-257
[52] = test system: UACC-62
[53] = test system: UO-31
[54] = test system: A498
[55] = test system: HL-60
[56] = test system: HOP-62
[57] = test system: Hs-578T
[58] = test system: RPMI-8226
[59] = test system: SF-268

## Cc1ccc(C2=C(C#N)C(=O)N3CCN=C3S2)cc1
[1]
  GI50: > 100 µM (inactive)
[2]
  GI50: > 100 µM (inactive)
[3]
  GI50: 45.1 µM (inactive)
[4]
  GI50: > 100 µM (inactive)
[5]
  GI50: > 100 µM (inactive)
[6]
  GI50: > 100 µM (inactive)
[7]
  GI50: > 100 µM (inactive)
[8]
  GI50: > 100 µM (inactive)
[9]
  GI50: > 100 µM (inactive)
[10]
  GI50: > 100 µM (inactive)
[11]
  GI50: > 100 µM (inactive)
[12]
  GI50: > 100 µM
[13]
  GI50: > 100 µM (inactive)
[14]
  GI50: 57.1 µM (inactive)
[15]
  GI50: > 100 µM (inactive)
[16]
  GI50: 58.2 µM (inactive)
[17]
  GI50: > 100 µM (inactive)
[18]
  GI50: > 100 µM (inactive)
[19]
  GI50: > 100 µM (inactive)
[20]
  GI50: > 100 µM (inactive)
[21]
  GI50: > 100 µM (inactive)
[22]
  GI50: > 100 µM (inactive)
[23]
  GI50: > 100 µM (inactive)
[24]
  GI50: > 100 µM (inactive)
[25]
  GI50: 43.5 µM (inactive)
[26]
  GI50: > 100 µM (inactive)
[27]
  GI50: > 100 µM (inactive)
[28]
  GI50: > 100 µM (inactive)
[29]
  GI50: > 100 µM (inactive)
[30]
  GI50: > 100 µM (inactive)
[31]
  GI50: > 100 µM (inactive)
[32]
  GI50: > 100 µM (inactive)
[33]
  GI50: > 100 µM (inactive)
[34]
  GI50: > 100 µM (inactive)
[35]
  GI50: > 100 µM (inactive)
[36]
  GI50: > 100 µM (inactive)
[37]
  GI50: > 100 µM (inactive)
[38]
  GI50: > 100 µM (inactive)
[39]
  GI50: > 100 µM (inactive)
[40]
  GI50: > 100 µM (inactive)
[41]
  GI50: > 100 µM (inactive)
[42]
  GI50: > 100 µM (inactive)
[43]
  GI50: > 100 µM (inactive)
[44]
  GI50: 70.3 µM (inactive)
[45]
  GI50: > 100 µM (inactive)
[46]
  GI50: > 100 µM (inactive)
[47]
  GI50: > 100 µM (inactive)
[48]
  GI50: > 100 µM (inactive)
[49]
  GI50: > 100 µM (inactive)
[50]
  GI50: > 100 µM (inactive)
[51]
  GI50: > 100 µM (inactive)
[52]
  GI50: > 100 µM (inactive)
[53]
  GI50: > 100 µM (inactive)

## O=C1/C(=C/c2ccccc2)CCc2ccccc21
[1]
  GI50: 17.5 µM (inactive)
[54]
  GI50: 16.9 µM (inactive)
[2]
  GI50: 22.7 µM (inactive)
[3]
  GI50: 17.2 µM (inactive)
[4]
  GI50: 16.2 µM (inactive)
[5]
  GI50: 17.7 µM (inactive)
[6]
  GI50: 4.02 µM (inactive)
[7]
  GI50: 19.6 µM (inactive)
[8]
  GI50: 16.2 µM (inactive)
[9]
  GI50: 17.8 µM (inactive)
[10]
  GI50: 16.3 µM (inactive)
[11]
  GI50: 15.1 µM (inactive)
[12]
  GI50: 25.6 µM
[55]
  GI50: 16.9 µM (inactive)
[56]
  GI50: 15.7 µM (inactive)
[14]
  GI50: 16.6 µM (inactive)
[57]
  GI50: 19.8 µM (inactive)
[15]
  GI50: 21.4 µM (inactive)
[16]
  GI50: 6.97 µM (inactive)
[17]
  GI50: 18 µM (inactive)
[18]
  GI50: 16.8 µM (inactive)
[19]
  GI50: 20.1 µM (inactive)
[20]
  GI50: 5.15 µM (inactive)
[21]
  GI50: 26.2 µM (inactive)
[22]
  GI50: 14.8 µM (inactive)
[23]
  GI50: 16.2 µM (inactive)
[24]
  GI50: 12.2 µM (inactive)
[25]
  GI50: 16.6 µM (inactive)
[26]
  GI50: 18.3 µM (inactive)
[27]
  GI50: 19.6 µM (inactive)
[28]
  GI50: 26.1 µM (inactive)
[30]
  GI50: 28.4 µM (inactive)
[31]
  GI50: 16.6 µM (inactive)
[32]
  GI50: 14.8 µM (inactive)
[33]
  GI50: 16.8 µM (inactive)
[34]
  GI50: 25.6 µM (inactive)
[35]
  GI50: 19 µM (inactive)
[58]
  GI50: 3.11 µM (inactive)
[36]
  GI50: 15.2 µM (inactive)
[59]
  GI50: 19.7 µM (inactive)
[37]
  GI50: 17.7 µM (inactive)
[38]
  GI50: 16 µM (inactive)
[39]
  GI50: 19 µM (inactive)
[41]
  GI50: 17.7 µM (inactive)
[42]
  GI50: 25.6 µM (inactive)
[43]
  GI50: 21.9 µM (inactive)
[44]
  GI50: 10.4 µM (inactive)
[45]
  GI50: 17.3 µM (inactive)
[46]
  GI50: 9.71 µM (inactive)
[47]
  GI50: 13.9 µM (inactive)
[49]
  GI50: 15.2 µM (inactive)
[50]
  GI50: 16.2 µM (inactive)
[51]
  GI50: 16.1 µM (inactive)
[52]
  GI50: 17.9 µM (inactive)
[53]
  GI50: 14.6 µM (inactive)
